What was measured:
[1] = Ratio of Kapp for synthetic poly(dA-dT)]2 oligonucleotide to Kapp for synthetic poly(dG-dC)]2 oligonucleotide
HT-29 [2] = assay: Cytotoxicity against human HT29 cells after 72 hrs; assay type: functional; conditions: HT-29, 72 h
HT-29 [3] = assay: Effect on apoptosis in human HT29 PI-/AnnV- cells after 6 hrs by biparametric flow cytometric analysis; assay type: functional; conditions: HT-29, 6 h, read-out: LC50 (the source's name)
HT-29 [4] = assay: Effect on apoptosis in human HT29 PI+/AnnV- cells after 6 hrs by biparametric flow cytometric analysis; assay type: functional; conditions: HT-29, 6 h, read-out: LC50 (the source's name)
HT-29 [5] = assay: Effect on apoptosis in human HT29 PI-/AnnV+ cells after 6 hrs by biparametric flow cytometric analysis; assay type: functional; conditions: HT-29, 6 h, read-out: LC50 (the source's name)
HT-29 [6] = assay: Effect on apoptosis in human HT29 PI+/AnnV+ cells after 6 hrs by biparametric flow cytometric analysis; assay type: functional; conditions: HT-29, 6 h, read-out: LC50 (the source's name)
HT-29 [7] = assay: Effect on apoptosis in human HT29 PI-/AnnV- cells after 12 hrs by biparametric flow cytometric analysis; assay type: functional; conditions: HT-29, 12 h, read-out: LC50 (the source's name)
HT-29 [8] = assay: Effect on apoptosis in human HT29 PI+/AnnV- cells after 12 hrs by biparametric flow cytometric analysis; assay type: functional; conditions: HT-29, 12 h, read-out: LC50 (the source's name)
HT-29 [9] = assay: Effect on apoptosis in human HT29 PI-/AnnV+ cells after 12 hrs by biparametric flow cytometric analysis; assay type: functional; conditions: HT-29, 12 h, read-out: LC50 (the source's name)
HT-29 [10] = assay: Effect on apoptosis in human HT29 PI+/AnnV+ cells after 12 hrs by biparametric flow cytometric analysis; assay type: functional; conditions: HT-29, 12 h, read-out: LC50 (the source's name)
HT-29 [11] = assay: Effect on apoptosis in human HT29 PI-/AnnV- cells after 24 hrs by biparametric flow cytometric analysis; assay type: functional; conditions: HT-29, 24 h, read-out: LC50 (the source's name)
HT-29 [12] = assay: Effect on apoptosis in human HT29 PI+/AnnV- cells after 24 hrs by biparametric flow cytometric analysis; assay type: functional; conditions: HT-29, 24 h, read-out: LC50 (the source's name)
HT-29 [13] = assay: Effect on apoptosis in human HT29 PI-/AnnV+ cells after 24 hrs by biparametric flow cytometric analysis; assay type: functional; conditions: HT-29, 24 h, read-out: LC50 (the source's name)
HT-29 [14] = assay: Effect on proapoptotic CD70 gene expression in human HT29 cells after 6 hrs; assay type: functional
HT-29 [15] = assay: Effect on proapoptotic FAS gene expression in human HT29 cells after 6 hrs; assay type: functional
HT-29 [16] = assay: Effect on proapoptotic TNFRSF11B gene expression in human HT29 cells after 6 hrs; assay type: functional
HT-29 [17] = assay: Effect on proapoptotic TNFRSF21 gene expression in human HT29 cells after 6 hrs; assay type: functional
HT-29 [18] = assay: Effect on proapoptotic CD27 gene expression in human HT29 cells after 6 hrs; assay type: functional
HT-29 [19] = assay: Effect on proapoptotic TRAF2 gene expression in human HT29 cells after 6 hrs; assay type: functional
HT-29 [20] = assay: Effect on proapoptotic TRAF3 gene expression in human HT29 cells after 6 hrs; assay type: functional
HT-29 [21] = assay: Effect on proapoptotic TRAF4 gene expression in human HT29 cells after 6 hrs; assay type: functional
HT-29 [22] = assay: Effect on proapoptotic FADD gene expression in human HT29 cells after 6 hrs; assay type: functional
HT-29 [23] = assay: Effect on proapoptotic TRADD gene expression in human HT29 cells after 6 hrs; assay type: functional
HT-29 [24] = assay: Effect on proapoptotic BAK1 gene expression in human HT29 cells after 6 hrs; assay type: functional
HT-29 [25] = assay: Effect on proapoptotic BAX gene expression in human HT29 cells after 6 hrs; assay type: functional
HT-29 [26] = assay: Effect on proapoptotic BCL2 gene expression in human HT29 cells after 6 hrs; assay type: functional
HT-29 [27] = assay: Effect on apoptotic BCL2L10 gene expression in human HT29 cells after 6 hrs; assay type: functional
HT-29 [28] = assay: Effect on proapoptotic BCL2L11 gene expression in human HT29 cells after 6 hrs; assay type: functional
HT-29 [29] = assay: Effect on proapoptotic BID gene expression in human HT29 cells after 6 hrs; assay type: functional
HT-29 [30] = assay: Effect on proapoptotic BIK gene expression in human HT29 cells after 6 hrs; assay type: functional
HT-29 [31] = assay: Effect on proapoptotic BNIP1 gene expression in human HT29 cells after 6 hrs; assay type: functional
HT-29 [32] = assay: Effect on apoptotic BNIP2 gene expression in human HT29 cells after 6 hrs; assay type: functional
HT-29 [33] = assay: Effect on proapoptotic BNIP3L gene expression in human HT29 cells after 6 hrs; assay type: functional
HT-29 [34] = assay: Effect on apoptotic MCL1 gene expression in human HT29 cells after 6 hrs; assay type: functional
HT-29 [35] = assay: Effect on proapoptotic CASP6 gene expression in human HT29 cells after 6 hrs; assay type: functional
HT-29 [36] = assay: Effect on proapoptotic CASP7 gene expression in human HT29 cells after 6 hrs; assay type: functional

Work on `CN(C)CCNc1ccc(NCCCN(C)CCCNc2ccc(NCCN(C)C)c3c2C(=O)c2cnccc2C3=O)c2c1C(=O)c1ccncc1C2=O` yielded a Ratio [1] of 2.5, a GI50 (HT-29 [2]) of 0.3 µM and an LC50 (concentration killing 50% of cells) (HT-29 [2]) of 62 µM. It also gave a TGI (HT-29 [2]) of 5.1 µM, a CC50 (HT-29 [3]) of 88.5 µM and a CC50 (HT-29 [4]) of 3.3 µM. It also gave a CC50 (HT-29 [5]) of 7.4 µM, a CC50 (HT-29 [6]) of 0.8 µM and a CC50 (HT-29 [7]) of 83.2 µM. For the same compound, the CC50 (HT-29 [8]) was 5.3 µM, the CC50 (HT-29 [9]) was 10.3 µM and the CC50 (HT-29 [10]) was 1.2 µM. For the same compound, the CC50 (HT-29 [11]) was 37.1 µM, the CC50 (HT-29 [12]) was 8.3 µM and the CC50 (HT-29 [13]) was 36.3 µM. For the same compound, the Fold change (HT-29 [14]) was 2.2, the Fold change (HT-29 [15]) was 2.2 and the Fold change (HT-29 [16]) was 2.1. For the same compound, the Fold change (HT-29 [17]) was 3.7, the Fold change (HT-29 [18]) was 2.2 and the Fold change (HT-29 [19]) was 2.4. For the same compound, the Fold change (HT-29 [20]) was 4.5, the Fold change (HT-29 [21]) was 94 and the Fold change (HT-29 [22]) was 2.4. For the same compound, the Fold change (HT-29 [23]) was 4.3, the Fold change (HT-29 [24]) was 4.5 and the Fold change (HT-29 [25]) was 5.3. For the same compound, the Fold change (HT-29 [26]) was 4.2, the Fold change (HT-29 [27]) was 3.1 and the Fold change (HT-29 [28]) was 7.7. It also gave a Fold change (HT-29 [29]) of 4.3, a Fold change (HT-29 [30]) of 5.2 and a Fold change (HT-29 [31]) of 3. For the same compound, the Fold change (HT-29 [32]) was -2.9, the Fold change (HT-29 [33]) was 7.4 and the Fold change (HT-29 [34]) was -10. The Fold change (HT-29 [35]) was 3 and the Fold change (HT-29 [36]) was 6.4.

From ChEMBL document CHEMBL1141566, “Synthesis and antitumor evaluation of bis aza-anthracene-9,10-diones and bis aza-anthrapyrazole-6-ones” (2008)
